# Measured values as given in article PMC8308911, “Pharmacokinetic Study of Anti-osteoarthritic Compounds of a Standardized Fraction from Sphaeralcea Angustifolia” (Pharmaceuticals, 2021).
# Several values for one entry are separate records, joined by “and”; a condition that tells them apart may be missing. Equal values may be shown once. Read-outs that look alike come from different tables or passages of the source.
# Test: Pharmacokinetics after single oral administration of the SaTSS standardized fraction (plasma, HPLC, PKSolver)
# Assay type: in vivo, ICR mice
# Protocol: Analyses of HPLC were carried out in a Waters system (2695 Separation module) coupled to a diode array detector (2996) with a 190–600-nm detection range and operated by the Manager Millennium software system (Empower 1; Waters Corporation, Mexico City, Mexico). Separations were performed in a Spherisorb-ODS RP-18 column (250 × 4.6 mm, 5 µm; Waters Corporation, Mexico) employing a constant temperature of 25 °C during the analyses. Samples (20 µL) were eluted at a 1.0 mL/min flow rate with a gradient of mobile phases of (A) high-purity H2O with trifluoroacetic acid to 0.5% v/v (TFA, Sigma-Aldrich, Mexico City, Mexico) and (B) high purity CH3CN, and compounds were detected by monitoring absorbance for tomentin and scopoletin at λ = 343 nm and for sphaeralcic acid at λ = 357 nm. The mobile phase was started with water (100%) and was maintained for 1 min, then solvent B was gradually incorporated at 5% (at 2 min), at 30% (at 4 min), and at 50% (at 16 min). During the next 4 min, solvent B was increased to 100%, and this proportion was maintained for 5 min. Finally, the following 3 min were utilized to return the mobile phase to the initial condition. […] Identification of scopoletin and tomentin as well as sphaeralcic acid was performed by comparing their retention times (tomentin—11.288 min, scopoletin—11.349 min, coumarin mixure—11.457 min, and sphaeralcic acid—23.319 min) and absorbance spectra.
# The mice were previously anesthetized with sodium pentobarbital (PiSA Agropecuaria), then retro-orbital sinus blood was obtained using heparinized capillaries and distributed to heparinized tubes, and tubes were centrifuged at 3500 g for 7 min. The plasma obtained was transferred to new tubes and stored at −4 °C until use.
# Plasma samples were extracted with CH3CN and TFA (w/v) 20% (1:1), then vials were centrifuged at 14,000 g for 10 min and the supernatant was transferred to another vial and left to dry at room temperature. The precipitate was resuspended with 1 mL of high-purity methanol (Merk, México) and filtered through Teflon membrane (13 mm, 0.45 µm, Life Science). Each filtered sample was injected into the HPLC equipment, and the concentrations of tomentin and scopoletin at λ = 343 nm and of sphaeralcic acid at λ = 357 nm were obtained by comparison with pre-built calibration curves.
# To evaluate the suitability of the assay for the pharmacokinetic studies, 400 mg/kg of the active SaTSS fraction standardized in a mixture of tomentin and scopoletin (7.1 mg/400 mg), and sphaeralcic acid (34.6 mg/400 mg) was administered orally or intravenously to the mice. The dose of SaTSS fraction was chosen based on previous research of active compounds, as the median efective dose of each compound and detectable concentrations of them in the fraction. For oral pharmacokinetics, ten animals were used in each group at different times (0, 1.3, 3.3, 5, 10, 20, 40, 60, 80, 120, and 240 min). For intravenous pharmacokinetics, three animals were used in each group at different times (2, 4, 6, 8, 10, 15, 20, 30, and 60 min) Subsequently, the mice were anesthetized, retro-orbital sinus blood was obtained, plasma samples were extracted with CH3CN and TFA (w/v) 20% (1:1), and the extracts were analyzed by HPLC for coumarin (tomentin and scopoletin) and sphaeralcic acid quantification. Pharmacokinetic calculations were performed using the observed data. All data were subsequently processed using the PKSolver add-in program for Microsoft Excel written in Visual Basic for Applications. All values obtained were expressed in mean ± Standard Deviation (SD). For the pharmacokinetic assay, the selection was made either from a one-compartment or from a two-compartment model, with the use of both the Akaike Information Criterion (AIC) and the Schwarz Criterion (SC). […]
# [1] = oral 400 mg/kg SaTSS fraction, two-compartment model
# [2] = oral 400 mg/kg SaTSS fraction, two-compartment model, 400 mg/kg
# [3] = oral 400 mg/kg SaTSS fraction, two-compartment model, listed as Sphaeralcic Acid, 400 mg/kg
# [4] = oral 400 mg/kg SaTSS fraction, two-compartment model, listed as sphaeralcic acid, 400 mg/kg
smiles,measurement,setting,value
"COc1c(C)cc2c(C(C)C)cc(C(=O)O)c(O)c2c1O [Sphaeralcic acid, sphaeralcic acid]",AUC(0-inf),"ICR, mouse, plasma, po, 400 mg/kg, oral 400 mg/kg SaTSS fraction, two-compartment model",3470 ng·h/mL
same,AUC(0-t),"ICR, mouse, plasma, po, 400 mg/kg, oral 400 mg/kg SaTSS fraction, two-compartment model, read-out: AUC 0→240 (converted)",2900 ng·h/mL
same,CL/F,"ICR, mouse, plasma, po, 400 mg/kg, oral 400 mg/kg SaTSS fraction, two-compartment model, read-out: CL/F (apparent clearance related to bioavailability)",170 mL/min/kg
same,Cmax,"ICR, mouse, plasma, po, 400 mg/kg, oral 400 mg/kg SaTSS fraction, two-compartment model, read-out: Cmax",10400 ng/mL
same,MRT,"ICR, mouse, plasma, po, 400 mg/kg, oral 400 mg/kg SaTSS fraction, two-compartment model, read-out: MRT (mean residence time) (converted)",40.2 min
same,Tmax,"ICR, mouse, plasma, po, 400 mg/kg, oral 400 mg/kg SaTSS fraction, two-compartment model, read-out: Tmax (converted)",4 min
same,Vd/F,"ICR, mouse, plasma, po, 400 mg/kg, oral 400 mg/kg SaTSS fraction, two-compartment model, read-out: V/F (apparent volume of distribution related to bioavailability)",1.31 L/kg
same,k el,"ICR, mouse, plasma, po, 400 mg/kg, oral 400 mg/kg SaTSS fraction, two-compartment model, read-out: k10 (apparent first-order elimination rate constant from the central compartment) (converted)",0.00217 s⁻¹
same,half-life,"ICR, mouse, plasma, po, 400 mg/kg, oral 400 mg/kg SaTSS fraction, two-compartment model, read-out: t1/2β",44.6 min
same,concentration at 1.3 min,"ICR, mouse, plasma, oral single dose 400 mg/kg SaTSS fraction, 1.3 min, n = 10",5040 ± 50 ng/mL
same,concentration at 3.3 min,"ICR, mouse, plasma, oral single dose 400 mg/kg SaTSS fraction, 3.3 min, n = 10",9920 ± 410 ng/mL
same,concentration at 5 min,"ICR, mouse, plasma, oral single dose 400 mg/kg SaTSS fraction, 5 min, n = 10",12800 ± 540 ng/mL
same,concentration at 10 min,"ICR, mouse, plasma, oral single dose 400 mg/kg SaTSS fraction, 10 min, n = 10",4030 ± 110 ng/mL
same,concentration at 20 min,"ICR, mouse, plasma, oral single dose 400 mg/kg SaTSS fraction, 20 min, n = 10",2770 ± 80 ng/mL
same,concentration at 40 min,"ICR, mouse, plasma, oral single dose 400 mg/kg SaTSS fraction, 40 min, n = 10",1380 ± 120 ng/mL
same,concentration at 80 min,"ICR, mouse, plasma, oral single dose 400 mg/kg SaTSS fraction, 80 min, n = 10",170 ± 30 ng/mL
same,concentration at 120 min,"ICR, mouse, plasma, oral single dose 400 mg/kg SaTSS fraction, 120 min, n = 10",0 ng/mL
same,concentration at 240 min,"ICR, mouse, plasma, oral single dose 400 mg/kg SaTSS fraction, 240 min, n = 10",0 ng/mL
same,products derived from biotransformation in plasma,after oral administration of SaTSS fraction,not detected
same,time at which the plasma concentration fell below LOQ,oral 400 mg/kg SaTSS fraction,80 min
same,time of maximum (highest) observed plasma concentration,"oral 400 mg/kg SaTSS fraction, observed sampling time",five
same,"B (plasma concentration, peripheral compartment)",[1],1.845 µg/mL
same,k12 (transfer rate constant central to peripheral compartment),[1],0.114 min⁻¹
same,k21 (transfer rate constant peripheral to central compartment),[1],0.031 min⁻¹
same,α,[1],0.256 min⁻¹
same,β,[1],0.015 min⁻¹
same,Cmax,[2],10450 ng/mL
same,MRT (mean residence time),[2],40.17 min
same,"A (plasma concentration, central compartment)",[3],413.646 µg/mL
same,AUC 0→240,[3],173.724 µg·min/mL
same,AUC 0→∞,[3],208.058 µg·min/mL
same,CL/F (apparent clearance related to bioavailability),[3],0.166 (mg)/(µg/mL)/min
same,Cmax,[3],10447 ng/mL
same,MRT (mean residence time),[3],40.167 min
same,Tmax,[3],4.004 min
same,V/F (apparent volume of distribution related to bioavailability),[3],1.309 (mg)/(µg/mL)
same,k10 (apparent first-order elimination rate constant from the central compartment),[3],0.127 min⁻¹
same,ka (apparent first-order absorption rate constant),[3],0.273 min⁻¹
same,t1/2ka (absorption half time),[3],2.537 min
same,t1/2α,[3],2.698 min
same,t1/2β,[3],44.653 min
same,"A (plasma concentration, central compartment)",[4],413 µg/mL
same,ka (apparent first-order absorption rate constant),[4],0.27 min⁻¹ and 0.273 min⁻¹
same,t1/2ka (absorption half time),[4],2.53 min
same,t1/2α,[4],2.70 min
